Assay results taken from publication PMC7305075 (Cancer Chemotherapy and Pharmacology, 2020).
Where two headings read alike, the source gives them in different places.

Legend:
[1] = Plasma pharmacokinetics of paracetamol, paracetamol glucuronide and paracetamol sulphate in rats (HPLC-UV, non-compartmental); format: in vivo, Wistar rats; details: for Cmax / ka (absorption rate constant): plasma, mean ± SD (CV %)
Procedure: The experimental protocol assuming involvement of animals in this study was reviewed and approved by the Local Ethics Committee, Poznań, Poland (no 61/2017). All procedures were performed in accordance with the European Union regulations concerning the handling and use of laboratory animals. Adult male Wistar rats (weight 480–530 g) were used in the study. The animals were maintained under standard breeding conditions with a 12/12 h light–dark cycle (lights on at 06.00, lights off at 18.00) at constant room temperature (23 ± 2 °C), relative humidity of 55 ± 10% and given ad libitum access to food and water. The animals were allowed to acclimatise for a week before the beginning of the experiments. The rats were divided into three groups. […] To make sure that the animals received the entire dose of the drug, 1 mL of 10% DMSO was then administered to rinse the probe. 100 µL of blood was collected from each rat by cutting off a piece of his tail. The blood samples were collected into heparinised test tubes at the following time points: 0, 0.5, 1, 2, 3, 4, 5, 6, 7, 8, 10, 12, 24, 30, 48, 72, 96 h. […] All the blood samples were centrifuged at 2.880 g for 10 min at 4 °C.
Separation was achieved by isocratic elution of the mobile phase, comprising sodium sulphate 0.05 M pH 2.2 (adjusted with 85% orthophosphoric acid) and acetonitrile (93:7, v/v), at a flow rate of 1.0 mL/min through an BDS Hypersil® C18 column (150 mm × 4.6 mm, 5.0 μm particle size) (Thermo Electron Corporation®, Waltham, MA, USA). The total time of analysis for each run was 10 min. The column temperature was maintained at 25 °C, the UV detection wavelength was set at 254 nm and the injection volume was 50 μL. Theophylline was used as the internal standard (IS).
The maximum plasma concentration (Cmax) and the time to reach the Cmax (tmax) were derived directly from the observed plasma concentrations. The total area under the concentration–time curve (AUC) was estimated by the trapezoidal rule with extrapolation from time zero to infinity (AUC0-∞). The elimination half-life (t0.5) was estimated from ln2/kel. The apparent plasma drug clearance (Cl/F) was calculated by dividing the dose (D) by the AUC0-∞. The apparent volume of distribution (Vd/F) was estimated from D/(kel × AUC0-∞).

[2] = design: method as in PMID 26739624; details: ref [24], cited from earlier work
[3] = cited from earlier work
[4] = Plasma pharmacokinetics of sorafenib and sorafenib N-oxide in rats (HPLC-UV, non-compartmental); format: in vivo, Wistar rats; details: mean ± SD (CV %)
Procedure: The experimental protocol assuming involvement of animals in this study was reviewed and approved by the Local Ethics Committee, Poznań, Poland (no 61/2017). All procedures were performed in accordance with the European Union regulations concerning the handling and use of laboratory animals. Adult male Wistar rats (weight 480–530 g) were used in the study. The animals were maintained under standard breeding conditions with a 12/12 h light–dark cycle (lights on at 06.00, lights off at 18.00) at constant room temperature (23 ± 2 °C), relative humidity of 55 ± 10% and given ad libitum access to food and water. The animals were allowed to acclimatise for a week before the beginning of the experiments. The rats were divided into three groups. […] To make sure that the animals received the entire dose of the drug, 1 mL of 10% DMSO was then administered to rinse the probe. 100 µL of blood was collected from each rat by cutting off a piece of his tail. The blood samples were collected into heparinised test tubes at the following time points: 0, 0.5, 1, 2, 3, 4, 5, 6, 7, 8, 10, 12, 24, 30, 48, 72, 96 h. […]
The maximum plasma concentration (Cmax) and the time to reach the Cmax (tmax) were derived directly from the observed plasma concentrations. […] The apparent plasma drug clearance (Cl/F) was calculated by dividing the dose (D) by the AUC0-∞. […]

[5] = test system: UGT2B15; design: method as in Liu et al. [26]; details: in vitro, recombinant UDP-glucuronyl transferases and liver microsomes, paracetamol glucuronidation; ref Liu et al. [26]; cited from earlier work
[6] = test system: UGT1A1; details: in vitro studies; ref [21]; cited from earlier work
[7] = test system: UGT1A9; details: cited from earlier work
[8] = in vitro study; ref [42]; cited from earlier work
[9] = cited from earlier work; remark: listed apart in the source
[10] = design: method as in Karbownik et al. [36], [37]; details: ref Karbownik et al. [36], [37]; cited from earlier work
[11] = design: method as in Karbownik et al. [36]–[38]; details: in vivo; ref Karbownik et al. [36]–[38]; cited from earlier work
[12] = IS+PA group (with sorafenib) vs. IIIPA group
[13] = single oral paracetamol 100 mg/kg b.w. + sorafenib 100 mg/kg b.w. (IS+PA group)
[14] = single oral paracetamol 100 mg/kg b.w. alone (IIIPA group)
[15] = analogous dose (100 mg/kg) orally, ref Mekjaruskul et al. [35]
[16] = single dose 100 mg/kg orally, ref Pingili et al. [34]
[17] = in vitro, recombinant UDP-glucuronyl transferases and liver microsomes, paracetamol glucuronidation, ref Liu et al. [26]

CC(=O)Nc1ccc(O[C@@H]2O[C@H](C(=O)O)[C@@H](O)[C@H](O)[C@H]2O)cc1 [Paracetamol glucuronide, paracetamol glucuronide]
decrease in AUC0-∞ [1, 12]: 42% | reduction in Cmax [1, 12]: 48% | Cmax [1, 13]: 19830 ng/mL | Cmax [1, 14]: 38380 ng/mL

CC(=O)Nc1ccc(O)cc1 [Paracetamol]
fraction conjugated with cysteine ([2]; metabolism in the liver): 3% | fraction conjugated with glucuronic acid ([2]; metabolism in the liver): 60% | fraction conjugated with sulphuric acid ([2]; metabolism in the liver): 30% | fraction N-hydroxylated through cytochrome P-450 (CYP2E1) to NAPQI [2]: 5–10% | Cmax [3, 15]: 19100 ng/mL | t0.5 [3, 15]: 21.29 min | tmax [3, 15]: 1.0 h | Cmax [3, 16]: 5040 ng/mL | t0.5 [3, 16]: 266 min | tmax [3, 16]: 1.16 h | increase in AUC0-∞ [1, 12]: 71% | increase in Cmax [1, 12]: 33% | ka (absorption rate constant) [1, 13]: 2.09 ± 1.11 h⁻¹ | ka (absorption rate constant) [1, 14]: 2.35 ± 0.99 h⁻¹

CNC(=O)c1cc(Oc2ccc(NC(=O)Nc3ccc(Cl)c(C(F)(F)F)c3)cc2)cc[n+]1[O-] [Sorafenib N-oxide, sorafenib N-oxide]
tmax [4, 13]: 15.5 h | tmax ([4]; single oral sorafenib 100 mg/kg b.w. alone (IIS group)): 16.3 h

CNC(=O)c1cc(Oc2ccc(NC(=O)Nc3ccc(Cl)c(C(F)(F)F)c3)cc2)ccn1 [Sorafenib]
inhibition of UGT2B15 [5]: inhibited | inhibition of UGT1A1 [6]: particularly inhibits | inhibition of UGT1A9 ([7]; in vitro studies, ref [21]): particularly inhibits | inhibition of UGT1A9 [7, 17]: inhibited | binding to human plasma proteins [8]: 99.8% | Cmax ([9]; ref Wang [27]): 230.86 ng/mL | tmax ([9]; ref Wang [27]): 8.14 h | Cmax ([9]; ref Wang [39]): 338 ng/mL

Cc1nc(Nc2ncc(C(=O)Nc3c(C)cccc3Cl)s2)cc(N2CCN(CCO)CC2)n1 [dasatinib]
inhibition of UGT2B15 [5]: inhibited | inhibition of UGT1A9 [7, 17]: inhibited

C#Cc1cccc(Nc2ncnc3cc(OCCOC)c(OCCOC)cc23)c1 [erlotinib]
increase in AUC0-t of the TKI on co-administration with paracetamol [10]: 31% | increase in Cmax of the TKI on co-administration with paracetamol [10]: 88% | decrease of the AUC0-∞ of paracetamol after administration of the TKI [11]: 35.5% | drop of the Cmax of paracetamol after administration of the TKI [11]: 18.9%

CS(=O)(=O)CCNCc1ccc(-c2ccc3ncnc(Nc4ccc(OCc5cccc(F)c5)c(Cl)c4)c3c2)o1 [lapatinib]
increase in AUC0-t of the TKI on co-administration with paracetamol [10]: 240% | increase in Cmax of the TKI on co-administration with paracetamol [10]: 184% | decrease of the AUC0-∞ of paracetamol after administration of the TKI [11]: 48.8% | drop of the Cmax of paracetamol after administration of the TKI [11]: 55.7%

CCN(CC)CCNC(=O)c1c(C)[nH]c(/C=C2\C(=O)Nc3ccc(F)cc32)c1C [sunitinib]
decrease of the AUC0-∞ of paracetamol after administration of the TKI [11]: 68.19% | drop of the Cmax of paracetamol after administration of the TKI [11]: 63.95%
